The text below walks through data of PubChem BioAssay AID330 (DTP/NCI, 2004).

Where “and” joins values, the source holds several entries; their conditions need not be identical. Identical values can stand only once. Inconclusive results and toxic doses are left out.

The experiment has as its system P388 leukemia ip, CD2F1 mice, survival T/C. The experiment is described as follows: NCI In Vivo Anticancer Drug Screen. Data for tumor model P388 Leukemia (intraperitoneal) in CD2F1 (CDF1) mice. Particulars: endpoint: median survival time, higher = longer survival. The procedure, abridged: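 Mice carrying the transplanted tumor received test compound or vehicle. Survival was recorded in each group, and the value is the treated-group measurement divided by that of the vehicle-treated control group.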

Take `Nc1ncnc2c1ncn2C1OC(COP(=O)(O)O)C(O)C1O` (configuration not stated): the T/C was 99 % of control (dose: 12.5 mg/kg/injection, schedule: Q01DX009 (ip), vehicle: saline); 123 % of control (dose: 18.8 mg/kg/injection, schedule: Q03HX016 (ip), vehicle: saline); 113 % of control (dose: 18.8 mg/kg/injection, schedule: Q03HX024 (ip), vehicle: saline); 96 % of control (dose: 20.0 mg/kg/injection, schedule: Q01DX009 (ip), vehicle: water); 102 % of control (dose: 25.0 mg/kg/injection, schedule: Q01DX009 (ip), vehicle: saline); 104 % of control (dose: 25.0 mg/kg/injection, schedule: Q01DX009 (ip), vehicle: suspension in saline). Moreover, the T/C is 103 % of control and 105 % of control (dose: 40.0 mg/kg/injection, schedule: Q01DX009 (ip), vehicle: water); 101 % of control (dose: 50.0 mg/kg/injection, schedule: Q01DX005 (ip), vehicle: water); 102 % of control (dose: 50.0 mg/kg/injection, schedule: Q01DX005 (iv), vehicle: water); 94 % of control and 98 % of control (dose: 50.0 mg/kg/injection, schedule: Q01DX009 (ip), vehicle: saline); 100 % of control (dose: 50.0 mg/kg/injection, schedule: Q01DX009 (ip), vehicle: suspension in saline); 113 % of control (dose: 50.0 mg/kg/injection, schedule: Q01DX009 (ip), vehicle: water). In addition, the T/C was 152 % of control (dose: 75.0 mg/kg/injection, schedule: Q03HX016 (ip), vehicle: saline); 150 % of control (dose: 75.0 mg/kg/injection, schedule: Q03HX024 (ip), vehicle: saline); 108 % of control and 116 % of control (dose: 80.0 mg/kg/injection, schedule: Q01DX009 (ip), vehicle: water); 122 % of control (dose: 90.0 mg/kg/injection, schedule: Q03HX024 (ip), vehicle: water); 122 % of control (dose: 100.0 mg/kg/injection, schedule: Q01DX005 (ip), vehicle: water); 104 % of control (dose: 100.0 mg/kg/injection, schedule: Q01DX005 (iv), vehicle: water). The T/C is 101 % of control and 96 % of control (dose: 100.0 mg/kg/injection, schedule: Q01DX009 (ip), vehicle: saline); 96 % of control (dose: 100.0 mg/kg/injection, schedule: Q01DX009 (ip), vehicle: suspension in saline); 99 % of control (dose: 100.0 mg/kg/injection, schedule: Q01DX009 (oral), vehicle: water); 156 % of control (dose: 100.0 mg/kg/injection, schedule: Q03HX016 (ip), vehicle: saline); 160 % of control (dose: 100.0 mg/kg/injection, schedule: Q03HX016 (ip), vehicle: water); 150 % of control (dose: 100.0 mg/kg/injection, schedule: Q03HX024 (ip), vehicle: saline). Also, the T/C is, setting by setting: (dose: 100.0 mg/kg/injection, schedule: Q03HX024 (ip), vehicle: water) 151 % of control; (dose: 100.0 mg/kg/injection, schedule: Q04DX003 (ip), vehicle: water) 120 % of control; (dose: 100.0 mg/kg/injection, schedule: Q08DX002 (ip), vehicle: water) 112 % of control; (dose: 150.0 mg/kg/injection, schedule: Q03HX016 (ip), vehicle: saline) 167 % of control; (dose: 150.0 mg/kg/injection, schedule: Q03HX024 (ip), vehicle: saline) 171 % of control; (dose: 160.0 mg/kg/injection, schedule: Q01DX009 (ip), vehicle: water) 109 % of control. The T/C by setting is: (dose: 200.0 mg/kg/injection, schedule: Q01DX005 (iv), vehicle: water) 102 % of control; (dose: 200.0 mg/kg/injection, schedule: Q01DX009 (ip), vehicle: saline) 92 % of control and 101 % of control; (dose: 200.0 mg/kg/injection, schedule: Q01DX009 (ip), vehicle: suspension in saline) 106 % of control; (dose: 200.0 mg/kg/injection, schedule: Q01DX009 (oral), vehicle: water) 104 % of control; (dose: 200.0 mg/kg/injection, schedule: Q03HX016 (ip), vehicle: water) 183 % of control; (dose: 200.0 mg/kg/injection, schedule: Q03HX024 (ip), vehicle: water) 186 % of control. Besides, the T/C reads like this: (dose: 200.0 mg/kg/injection, schedule: Q04DX003 (ip), vehicle: water) 121 % of control; (dose: 200.0 mg/kg/injection, schedule: Q08DX002 (ip), vehicle: water) 113 % of control; (dose: 400.0 mg/kg/injection, schedule: Q01DX005 (iv), vehicle: water) 106 % of control; (dose: 400.0 mg/kg/injection, schedule: Q01DX009 (ip), vehicle: saline) 104 % of control; (dose: 400.0 mg/kg/injection, schedule: Q01DX009 (ip), vehicle: water) 153 % of control; (dose: 400.0 mg/kg/injection, schedule: Q03HX009 (oral), vehicle: water) 98 % of control. The T/C (dose: 400.0 mg/kg/injection, schedule: Q03HX015 (oral), vehicle: water) is 103 % of control; the T/C (dose: 400.0 mg/kg/injection, schedule: Q03HX016 (ip), vehicle: water) is 230 % of control; the T/C (dose: 400.0 mg/kg/injection, schedule: Q03HX024 (ip), vehicle: water) is 210 % of control; the T/C (dose: 400.0 mg/kg/injection, schedule: Q04DX003 (ip), vehicle: water) is 119 % of control; the T/C (dose: 400.0 mg/kg/injection, schedule: Q08DX002 (ip), vehicle: water) is 118 % of control; the T/C (dose: 800.0 mg/kg/injection, schedule: Q01DX005 (ip), vehicle: water) is 158 % of control. Besides, the T/C is, setting by setting: (dose: 800.0 mg/kg/injection, schedule: Q01DX005 (iv), vehicle: water) 111 % of control; (dose: 800.0 mg/kg/injection, schedule: Q01DX009 (ip), vehicle: water) 164 % of control; (dose: 800.0 mg/kg/injection, schedule: Q01DX009 (oral), vehicle: water) 90 % of control; (dose: 800.0 mg/kg/injection, schedule: Q03HX009 (ip), vehicle: water) 167 % of control; (dose: 800.0 mg/kg/injection, schedule: Q03HX009 (oral), vehicle: water) 105 % of control; (dose: 800.0 mg/kg/injection, schedule: Q03HX015 (oral), vehicle: water) 100 % of control. In addition, the T/C (dose: 800.0 mg/kg/injection, schedule: Q03HX016 (ip), vehicle: water) is 260 % of control; the T/C (dose: 800.0 mg/kg/injection, schedule: Q08DX002 (ip), vehicle: water) is 124 % of control; the T/C (dose: 1600.0 mg/kg/injection, schedule: Q01DX009 (oral), vehicle: water) was 99 % of control; the T/C (dose: 1600.0 mg/kg/injection, schedule: Q03HX009 (ip), vehicle: water) is 197 % of control; the T/C (dose: 1600.0 mg/kg/injection, schedule: Q03HX009 (oral), vehicle: water) is 98 % of control; the T/C (dose: 1600.0 mg/kg/injection, schedule: Q03HX015 (oral), vehicle: water) was 100 % of control. Besides, the T/C was 96 % of control (dose: 3200.0 mg/kg/injection, schedule: Q03HX009 (oral), vehicle: water) and 102 % of control (dose: 3200.0 mg/kg/injection, schedule: Q03HX015 (oral), vehicle: water).

In the case of `CC1SC(C)C1O` (configuration not stated), the T/C by setting is: (dose: 60.0 mg/kg/injection, schedule: Q01DX005 (ip), vehicle: saline) 104 % of control; (dose: 120.0 mg/kg/injection, schedule: Q01DX005 (ip), vehicle: saline) 108 % of control; (dose: 240.0 mg/kg/injection, schedule: Q01DX005 (ip), vehicle: saline) 93 % of control.

As to `CCC(/C=C/c1ccc(C)cc1)=N\NC(=O)c1ccccc1`, the T/C by setting is: (dose: 60.0 mg/kg/injection, schedule: Q01DX005 (ip), vehicle: saline with Tween-80) 98 % of control; (dose: 120.0 mg/kg/injection, schedule: Q01DX005 (ip), vehicle: saline with Tween-80) 89 % of control; (dose: 240.0 mg/kg/injection, schedule: Q01DX005 (ip), vehicle: saline with Tween-80) 90 % of control.

For the compound `OC1C2CCCC1C(c1ccccc1)NC2c1ccccc1` (configuration not stated), the T/C runs as follows: (dose: 100.0 mg/kg/injection, schedule: Q04DX003 (ip), vehicle: saline) 100 % of control and 94 % of control; (dose: 200.0 mg/kg/injection, schedule: Q04DX003 (ip), vehicle: saline) 100 % of control and 94 % of control; (dose: 400.0 mg/kg/injection, schedule: Q04DX003 (ip), vehicle: saline) 100 % of control.

Take `C[CH2][Sn]([CH2]C)([O]C(C)=O)[O][Sn]([CH2]C)([CH2]C)[O]C(C)=O`: for the setting “dose: 6.25 mg/kg/injection, schedule: Q01DX009 (ip), vehicle: saline”, the T/C is 155 % of control.
